Read-outs that look alike come from different tables or passages of the source.
Target: T1, full-length SARM1 (FL-SARM1) (Homo sapiens, UniProt Q6SZW1)
T1 sequence (Q6SZW1 28-724): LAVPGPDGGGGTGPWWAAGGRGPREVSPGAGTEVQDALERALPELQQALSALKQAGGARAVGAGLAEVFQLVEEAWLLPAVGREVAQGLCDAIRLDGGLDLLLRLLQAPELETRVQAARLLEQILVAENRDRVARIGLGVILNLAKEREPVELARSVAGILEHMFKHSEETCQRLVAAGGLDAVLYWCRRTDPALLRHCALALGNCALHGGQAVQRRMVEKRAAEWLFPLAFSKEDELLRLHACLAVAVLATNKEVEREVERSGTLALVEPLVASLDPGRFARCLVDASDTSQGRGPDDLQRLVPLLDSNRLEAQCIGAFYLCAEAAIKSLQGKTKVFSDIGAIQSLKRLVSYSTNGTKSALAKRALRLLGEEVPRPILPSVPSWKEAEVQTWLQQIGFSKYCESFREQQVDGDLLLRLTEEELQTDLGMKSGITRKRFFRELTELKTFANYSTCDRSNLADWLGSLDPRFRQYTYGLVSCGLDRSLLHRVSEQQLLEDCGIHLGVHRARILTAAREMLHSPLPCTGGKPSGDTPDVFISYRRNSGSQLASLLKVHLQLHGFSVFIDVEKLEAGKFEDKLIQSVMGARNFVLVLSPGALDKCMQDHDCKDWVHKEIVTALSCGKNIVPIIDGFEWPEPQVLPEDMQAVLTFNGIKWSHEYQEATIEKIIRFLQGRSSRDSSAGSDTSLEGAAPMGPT
Assay: FL-SARM1 cellular lysate assay (NAD/NADH-Glo detection of remaining NAD+, NMN-activated)

[1] = Activity (μM) (IC50), 11 point curve
[2] = read-out: Activity (IC50 class), 11 point curve
[3] = Activity (IC50 class), 11 point curve

Description: Preparation of full-length SARM1 (FL-SARM1) lysate: HEK293T cells (ATCC: CRL-3216) were grown on 150 mm TC-treated dishes to 80-90% confluency in complete DMEM (DMEM (Thermo Fisher: 11965175) supplemented with 10% HI—FBS (VWR: 10802-772), 1× Pen/Strep (Thermo Fisher: 15140122), 1×NEAA (Thermo Fisher: 1140050), 1× glutamax (Thermo Fisher: 35050061), and 1 mM sodium pyruvate (Thermo Fisher: 11360070)) at 37° C. and 5% CO2. One hour prior to transfection, the media was replaced with fresh, 37° C. complete DMEM (20 mL per one 150 mm dish) supplemented with additional 10 mM glucose (Alfa Aesar AAJ60067EQE). Per one 150 mm dish, 30 μg FL-SARM1 (SEQ. ID. 1; cloned in-house) plasmid was dissolved in 1 mL DMEM at ambient temperature and were mixed by inverting the tube 8-10 times. 90 μL of GenJet™ in vitro DNA transfection reagent (Ver2) was dissolved in 1 mL DMEM at ambient temperature and were mixed by inverting the tube 8-10 times. The plasmid and transfection agent solutions were combined, mixed by 8-10 inversions and incubated for 10 minutes at ambient temperature. 2 mL of this transfection mixture was added to each dish containing HEK293T cells as prepared above followed by a gentle mixing of 4-5 horizontal rotations. The dishes were incubated at 37° C. and 5% CO2 for 24 h. The dishes were removed from the incubator, the medium was aspirated and the cells were scraped off using cell scrapers in ice-cold 1×PBS (5 mL/dish, Thermo Fisher Scientific 10010023). The collected cells were centrifuged at 300 g for 5 minutes at 4° C. The supernatant was aspirated and the pellet was frozen at −80° C. until needed. The cell pellet from 30 dishes was dissolved in 30 mL 1×PBS supplemented with 4 tablets of Complete, Mini EDTA-free protease inhibitor cocktail at 4° C. This mixture was sonicated on ice for 10 minutes at 50% amplitude with a 1 second on/1 second off interval using a Model 120 sonicator (Thermo Fisher Scientific, FB120110). The lysate was centrifuged at 16000 g for 10 minutes at 4° C.
To a white 384-well Proxiplate (PerkinElmer, PE-6008280) was added 50 nL/well of a DMSO solution containing test compounds followed by 7.5 μL/well of a 0.067 mg/mL solution of SARMi cellular lysate in reaction buffer (DPBS containing CHAPSO (0.1%) and fatty acid free BSA (0.032%)). The plate was centrifuged for 1 minute at 1000 RPM and then placed in an incubator at 23° C. for 15 minutes. To the wells were added 2.5 μL/well of a solution containing 40 M NAD^+ and 4 mM nicotinamide mononucleotide (NMN) in reaction buffer. The plate was centrifuged for 1 min at 1000 RPM, the plate was sealed and placed in an incubator at 23° C. for 3.5 hours before adding 3.5 μL/well of NAD/NADH-Glo™ solution (preparation as described by Promega using the extended detection protocol). The plate was centrifuged for 1 minute at 1000 RPM and then incubated at 23° C. for 20 minutes. 1 μL/well of a 3.625 mM solution of menadione in DMSO was added and the plate was centrifuged for 1 minute at 1000 RPM. Relative light units (RLU) were recorded using an Envision plate reader at a height of 6.5 mm.
IC50 values were calculated from an 11 point curve using ½ log dilutions using a four-parameter logistic regression curve fit.

Row | Structure (SMILES) | IC50 [1] [µM] | IC50 [2] [µM] | IC50 [3] [µM]
1 | Cc1ccc(NC(=O)N2[C@@H]3C[C@@H](C)C[C@H]2C3)cc1-c1ncccn1 [Example 223, cis-3-methyl-N-(4-methyl-3-pyrimidin-2-ylphenyl)-6-azabicyclo[3.1.1]heptane-6-carboxamide] | 0.04 | 0.0001 to 1 | 
2 | Cc1ccc(NC(=O)N2C3C[C@@H](C)C[C@H]2C3)cc1-c1cc(F)ccn1 [Example 224, cis-N-[3-(4-fluoropyridin-2-yl)-4-methylphenyl]-3-methyl-6-azabicyclo[3.1.1]heptane-6-carboxamide] | 0.04 | 0.0001 to 1 | 
3 | Cc1ccc(NC(=O)N2[C@@H]3C[C@@H](C)C[C@H]2C3)cc1-c1cncc(C(F)(F)F)n1 [Example 228, cis-3-methyl-N-[4-methyl-3-[6-(trifluoromethyl)pyrazin-2-yl]phenyl]-6-azabicyclo[3.1.1]heptane-6-carboxamide] | 0.09 | 0.0001 to 1 | 
4 | Cc1ccc(NC(=O)N2[C@@H]3C[C@@H](C)C[C@H]2C3)cc1-c1nccnc1C(F)(F)F [Example 229, cis-3-methyl-N-[4-methyl-3-[3-(trifluoromethyl)pyrazin-2-yl]phenyl]-6-azabicyclo[3.1.1]heptane-6-carboxamide] | 0.2 | 0.0001 to 1 | 
5 | Cc1ccc(NC(=O)N2[C@@H]3C[C@@H](C)C[C@H]2C3)cc1-c1nccnc1F [Example 230, cis-N-[3-(3-fluoropyrazin-2-yl)-4-methylphenyl]-3-methyl-6-azabicyclo[3.1.1]heptane-6-carboxamide] | 0.04 | 0.0001 to 1 | 
6 | Cc1ccc(NC(=O)N2C3C[C@@H](C)C[C@H]2C3)cc1-c1cncc(F)n1 [Example 231, cis-N-[3-(6-fluoropyrazin-2-yl)-4-methylphenyl]-3-methyl-6-azabicyclo[3.1.1]heptane-6-carboxamide] | 0.08 | 0.0001 to 1 | 
7 | Cc1ccc(NC(=O)N2CC(C)C2)cc1-c1ncc(F)cn1 [Example 232, N-[3-(5-fluoropyrimidin-2-yl)-4-methylphenyl]-3-methylazetidine-1-carboxamide] | 20 |  | > 10
8 | Cc1ccc(NC(=O)N2C3C[C@@H](C)C[C@H]2C3)cc1-c1nccc(OC(F)F)n1 [Example 233, cis-N-[3-[4-(difluoromethoxy)pyrimidin-2-yl]-4-methylphenyl]-3-methyl-6-azabicyclo[3.1.1]heptane-6-carboxamide] | 0.1 | 0.0001 to 1 | 
9 | CCc1ccc(-c2cc(NC(=O)N3C4C[C@@H](C)C[C@H]3C4)ccc2C)nn1 [Example 234, cis-N-[3-(6-ethylpyridazin-3-yl)-4-methylphenyl]-3-methyl-6-azabicyclo[3.1.1]heptane-6-carboxamide] | 0.4 | 0.0001 to 1 | 
10 | Cc1ccc(NC(=O)N2[C@@H]3C[C@@H](C)C[C@H]2C3)cc1-c1cc(OC(F)F)cnn1 [Example 235, cis-N-[3-[5-(difluoromethoxy)pyridazin-3-yl]-4-methylphenyl]-3-methyl-6-azabicyclo[3.1.1]heptane-6-carboxamide] | 0.06 | 0.0001 to 1 | 
11 | Cc1ccc(NC(=O)N2[C@@H]3C[C@@H](C)C[C@H]2C3)cc1-c1nccc(C2CC2)n1 [Example 236, cis-N-[3-(4-cyclopropylpyrimidin-2-yl)-4-methylphenyl]-3-methyl-6-azabicyclo[3.1.1]heptane-6-carboxamide] | 0.7 | 0.0001 to 1 | 
12 | CCc1ccnc(-c2cc(NC(=O)N3C4C[C@@H](C)C[C@H]3C4)ccc2C)n1 [Example 237, cis-N-[3-(4-ethylpyrimidin-2-yl)-4-methylphenyl]-3-methyl-6-azabicyclo[3.1.1]heptane-6-carboxamide] | 1.1 |  | 1 to 10
13 | Cc1ccc(NC(=O)N2[C@@H]3C[C@@H](C)C[C@H]2C3)cc1-c1cncc(C#N)n1 [Example 238, cis-N-[3-(6-cyanopyrazin-2-yl)-4-methylphenyl]-3-methyl-6-azabicyclo[3.1.1]heptane-6-carboxamide] | 0.04 | 0.0001 to 1 | 
14 | Cc1cnc(-c2cc(NC(=O)N3C4C[C@@H](C)C[C@H]3C4)c(F)cc2C)nn1 [Example 239, cis-N-[2-fluoro-4-methyl-5-(6-methyl-1,2,4-triazin-3-yl)phenyl]-3-methyl-6-azabicyclo[3.1.1]heptane-6-carboxamide] | 0.2 | 0.0001 to 1 | 
15 | Cc1cc(F)c(NC(=O)N2[C@@H]3C[C@@H](C)C[C@H]2C3)cc1-c1nccnn1 [Example 240, cis-N-[2-fluoro-4-methyl-5-(1,2,4-triazin-3-yl)phenyl]-3-methyl-6-azabicyclo[3.1.1]heptane-6-carboxamide] | 0.09 | 0.0001 to 1 | 
16 | Cc1cc(F)c(NC(=O)N2C3C[C@@H](C4CC4)C[C@H]2C3)cc1-c1cccnn1 [Example 241, cis-3-cyclopropyl-N-(2-fluoro-4-methyl-5-pyridazin-3-ylphenyl)-6-azabicyclo[3.1.1]heptane-6-carboxamide] | 0.09 | 0.0001 to 1 | 
17 | Cc1ccc(-c2cc(NC(=O)N3[C@@H]4C[C@@H](C)C[C@H]3C4)ccc2C)nn1 [Example 242, cis-3-methyl-N-[4-methyl-3-(6-methylpyridazin-3-yl)phenyl]-6-azabicyclo[3.1.1]heptane-6-carboxamide] | 0.07 | 0.0001 to 1 | 
18 | COCCOCc1ccnc(-c2cc(NC(=O)N3[C@@H]4C[C@@H](C)C[C@H]3C4)ccc2C)n1 [Example 243, cis-N-[3-[4-(2-methoxyethoxymethyl)pyrimidin-2-yl]-4-methylphenyl]-3-methyl-6-azabicyclo[3.1.1]heptane-6-carboxamide] | 1.1 |  | 1 to 10
19 | Cc1cc(C(F)(F)F)c(NC(=O)N2[C@@H]3C[C@@H](C)C[C@H]2C3)cc1-c1cccnn1 [Example 244, cis-3-methyl-N-[4-methyl-5-pyridazin-3-yl-2-(trifluoromethyl)phenyl]-6-azabicyclo[3.1.1]heptane-6-carboxamide] | 16 |  | > 10
20 | C[C@@H]1C[C@@H]2C[C@H](C1)N2C(=O)Nc1cc(-c2cccnn2)c(C(F)(F)F)cc1F [Example 245, cis-N-[2-fluoro-5-pyridazin-3-yl-4-(trifluoromethyl)phenyl]-3-methyl-6-azabicyclo[3.1.1]heptane-6-carboxamide] | 0.2 | 0.0001 to 1 | 
21 | Cc1cc(F)c(NC(=O)N2C3CCCC2C3)cc1-c1nccnn1 [Example 246, N-[2-fluoro-4-methyl-5-(1,2,4-triazin-3-yl)phenyl]-6-azabicyclo[3.1.1]heptane-6-carboxamide] | 2 |  | 1 to 10
22 | Cc1cc(F)c(NC(=O)N2C3CCCC2C3)cc1-c1cc(Cl)cnn1 [Example 247, N-[5-(5-chloropyridazin-3-yl)-2-fluoro-4-methylphenyl]-6-azabicyclo[3.1.1]heptane-6-carboxamide] | 0.4 | 0.0001 to 1 | 
23 | Cc1ccc(NC(=O)N2C3CCCC2C3)cc1-c1ncc(F)cc1F [Example 248, N-[3-(3,5-difluoropyridin-2-yl)-4-methylphenyl]-6-azabicyclo[3.1.1]heptane-6-carboxamide] | 0.2 | 0.0001 to 1 | 
24 | COc1cnnc(-c2cc(NC(=O)N3C4CCCC3C4)c(F)cc2C)c1 [Example 249, N-[2-fluoro-5-(5-methoxypyridazin-3-yl)-4-methylphenyl]-6-azabicyclo[3.1.1]heptane-6-carboxamide] | 0.9 | 0.0001 to 1 | 
25 | Cc1c(-c2ncc(F)cn2)cc(NC(=O)N2C3CCCC2C3)c(F)c1F [Example 250, N-[2,3-difluoro-5-(5-fluoropyrimidin-2-yl)-4-methylphenyl]-6-azabicyclo[3.1.1]heptane-6-carboxamide] | 1.5 |  | 1 to 10
26 | Cc1ccc(NC(=O)N2C3CCCC2C3)cc1-c1ncc(F)c(C#N)n1 [Example 251, N-[3-(4-cyano-5-fluoropyrimidin-2-yl)-4-methylphenyl]-6-azabicyclo[3.1.1]heptane-6-carboxamide] | 1 |  | 1 to 10
27 | Cc1ccc(NC(=O)N2C3CCCC2C3)cc1-c1ncc(Cl)cn1 [Example 252, N-[3-(5-chloropyrimidin-2-yl)-4-methylphenyl]-6-azabicyclo[3.1.1]heptane-6-carboxamide] | 0.5 | 0.0001 to 1 | 
28 | Cc1cc(F)c(NC(=O)N2[C@@H]3C[C@@H](C)C[C@H]2C3)cc1-c1ncccn1 [Example 253, cis-N-(2-fluoro-4-methyl-5-pyrimidin-2-ylphenyl)-3-methyl-6-azabicyclo[3.1.1]heptane-6-carboxamide] | 0.08 | 0.0001 to 1 | 
29 | Cc1cc(F)c(NC(=O)N2C3C[C@@H](C)C[C@H]2C3)cc1-c1ncc(F)cn1 [Example 254, cis-N-[2-fluoro-5-(5-fluoropyrimidin-2-yl)-4-methylphenyl]-3-methyl-6-azabicyclo[3.1.1]heptane-6-carboxamide] | 0.02 | 0.0001 to 1 | 

— patent publication US20250171462A1 (NICO Therapeutics, Inc., priority 2022, published 2025)
